Test results taken from patent US20100298280A1, “Compounds for the Modulation of Huntingtin Aggregation, Methods and Means for Identifying Such Compounds” (priority 2007, published 2010).
Entries after “also recorded” stand apart in the source; their conditions may differ.

Experiments:
[1] = target: T1, mutant huntingtin aggregates (HDex1Q68 fused to ECFP/EYFP) (Homo sapiens, UniProt P42858, INS38QQQQQQQQQQQQQQQQQQQQQQQQQQQQQQQQQQQQQQQQQQQQQQQ); test: Cellular FRET aggregation assay in stable Tet-off CHO-AA8/Q68-Q68 cells; assay type: cell-based; details: for apparent inhibitory effects due to toxic effects (concentration): FRET decrease attributed to toxicity
Procedure: To determine the potential of possibly inhibiting substances the inventors performed dose response assays at concentrations ranging from 1, to 100 μM.
Screening was performed in 96-well plates (greiner bio-one) containing 1×10^4 cells/well of the stably inducible tet off cell lines htt-mut (six-fold) and CHO-AA8 line (three fold) for background control. Simultaneously, each compound was checked for its potential autofluorescence.
Two stable inducible CHO Tet off cell lines were constructed expressing simultaneously wildtype (CHO-AA8/Q17-Q17) or mutant (CHO-AA8/Q68-Q68) huntingtin fragments fused to ECFP or EYFP (FIG. 1B) after withdrawal of doxicycline (dox). Basal and induced expression levels of huntingtin fusion proteins were examined by Western blot analysis at different time intervals (4, 24, 48, and 72 hours). […] For the screening approach stable inducible huntingtin expressing cell lines were seeded in 96-well plates and the fluorescence intensities were measured with a fluorescence plate reader.
The test compounds were mixed in a fresh doxicycline-free medium with 2% DMSO and added to the Tet off cell lines two to three hours after seeding and attachment of the cells.
(§1) The FRET-measurement was performed 48 h later.
Subsequently, a second screening round was performed at concentration range 1, 3, and 10 μM, respectively.

CHO-AA8/Q68-Q68 cells = test: Propidium iodide exclusion assay (viability, cell number) following the FRET assay; details: after 48 h; for Viability ↓ (concentration) / Viability (effect in words): propidium iodide exclusion
Procedure: CHO-AA8/Q68-Q68, CHO-AA8/Q17-Q17 and CHO-AA8 cells were seeded in 96 well plates. After attachment of the cells, the medium was exchanged for Ham's F 12 medium containing 10% doxicycline free FBS and 2% DMSO supplemented with compounds. After 48 h the fluorescence intensities of cells were measured using a fluorescence plate reader (Fluoroscan Ascent, Thermo Scietific) and filtersets for CFP (ex 444 nm, em 485 nm), YFP(ex 485 nm, em 538 nm) and FRET (ex 444 nm, em 538 nm). After correction of background fluorescence (subtraction of CHO-AA8 cell fluorescence intensities) the FRET signal was determined using the method: FA=(FRET-a*YFP)/CFP with a=0.11 (Zal u. Gascoigne 2004, Zal et al. 2002). In following, the viability of cells was measured using a propidium iodide exclusion assay (Sattler et al. 1997). PI was added to the cells at final concentration of 0.15 mg/ml. After 15 minutes the PI fluorescence intensity was measured (ex 530 nm, em 620 nm). The cells were then lysed with 0.5% Triton X-100 (TX100) and the PI fluorescence intensity was measured again. Viability of cells was calculated as viability=1−(PIbefore TX100/PIafter TX100).
as §1

[2] = target: T2, GST-tagged mutant htt-exon-1 with 51 polyglutamines (GST-HDexQ51) (Homo sapiens, UniProt P42858, INS38QQQQQQQQQQQQQQQQQQQQQQQQQQQQQQ); test: Cell free filter retardation assay; assay type: biochemical; details: tested 1-200 μM
T2 construct: GST-tagged mutant htt-exon-1 with 51 polyglutamines (GST-HDexQ51); GST (N, cleaved yes)
Procedure: To determine if the cellular environment is a prerequisite for the inhibitory effect of the isolated natural compounds or if the compounds directly interfere with the aggregation process, the inventors performed a cell free filter retardation assay (Scherzinger et al., 1997).
Briefly, GST-tagged mutant htt-exon-1 with 51 polyglutamines (GST-HDexQ51) is incubated with the compounds and factor Xa to remove the GST tag for proper aggregation (16 h, 23° C.). The aggregated peptides are denaturized by boiling in SDS buffer (10 min, 99° C.) and filtered though a cellulose acetate membrane. The insoluble aggregates are retained at the membrane and detected with an anti-huntingtin antibody.
The isolated natural compounds, PGL-135 and congo red were tested in a concentration range of 1-200 μM. […] (Data not shown). Concentration of less than 50 μM congo red produced an enhancement of the aggregation process.

[3] = test system: mutant huntingtin aggregates; test: Filter retardation assay on lysates of treated cells (immunodetection); assay type: cell-based; details: increasing concentrations
Procedure: (C) Immunodetection of mutant huntingtin aggregates upon PGL-135 treatment of cells using a filter retardation assay.
The filter retardation assay was accomplished as described (Scherzinger et al., 1999). Cells were lysed (100 mM NaCl, 5 mM MgCl2, 0.5% NP-40, 1 mM EDTA, 50 mM Tris-HCl, protease inhibitors, 25 U/mL benzonase, pH 8.8), denatured 5 min at 95° C. with 2% SDS/50 mM DTT and cell lysates equal 2 μg protein were filtered through a 0.2 μm cellulose acetate membrane (Schleicher & Schuell) using a dot blot unit. The immunodetection was performed using the same antibody detection system as described above. Quantitative determination of the relative aggregate amount was evaluated with the Lumi Imager F1 System and Lumi Analyst 3.0 (Boehringer Mannheim, Germany).
The coherence between decreasing FRET values and less polyglutamine aggregates in PGL-135 treated cells was further validated by fluorescence microscopy imaging (data not shown) and a filter retardation assay (Heiser et al., 2000) (FIG. 2C).

[4] = target: T1, mutant huntingtin aggregates (HDex1Q68 fused to ECFP/EYFP); test: Cellular FRET aggregation assay in stable Tet-off CHO-AA8/Q68-Q68 cells; assay type: cell-based; details: half-maximal inhibition of FRET signal, dose response 0.7-50 μM

T1 sequence (P42858 1-88, stated change not applied): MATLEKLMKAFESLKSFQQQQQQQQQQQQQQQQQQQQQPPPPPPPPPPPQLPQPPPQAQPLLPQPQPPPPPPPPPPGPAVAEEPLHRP
T2 sequence (P42858 with tags, fused parts or gaps with the stated changes): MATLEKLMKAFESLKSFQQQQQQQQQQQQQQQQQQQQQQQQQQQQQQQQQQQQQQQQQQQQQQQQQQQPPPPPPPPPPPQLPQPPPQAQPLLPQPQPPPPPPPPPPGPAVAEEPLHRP

Compound	Cell number ↓ (concentration) (CHO-AA8/Q68-Q68 cells)	FRET-signal (effect in words) ([1]; 48 h, 2% DMSO)	Cell number (effect in words) (CHO-AA8/Q68-Q68 cells)	Viability (effect in words) (CHO-AA8/Q68-Q68 cells)	other results
C=CCNC1=C2C[C@@H](C)C[C@H](OC)[C@H](O)[C@@H](C)/C=C(\C)[C@H](OC(N)=O)[C@@H](OC)/C=C\C=C(/C)C(=O)NC(=CC1=O)C2=O [17-AAG]	↓ ≧0.3 μM				FRET-signal ↓ (concentration from which aggregation is reduced) ([1]; 48 h, 2% DMSO): ↓ ≧0.3 μM; apparent inhibitory effects due to toxic effects (concentration) [1]: > 0.7 µM; Viability ↓ (concentration) (CHO-AA8/Q68-Q68 cells): ↓ ≧0.3 μM
CN(CC(=O)O)C(=N)N [Creatine]		no effect	no effect	no effect	FRET-signal (effect in words) ([1]; 48 h, 2% DMSO, listed as creatin): no effects
NCCSSCCN [Cystamine]		no effect	no effect	no effect	FRET-signal (effect in words) ([1]; 48 h, 2% DMSO, listed as cystamine dihydrochloride): no effects
O=C(O)Cc1ccccc1Nc1c(Cl)cccc1Cl [Diclofenac]	↓ ≧250 nM	no effect		no effect	FRET-signal (effect in words) ([1]; 48 h, 2% DMSO, listed as diclofenac): no effects
COc1ccc2c(c1)c(CC(=O)O)c(C)n2C(=O)c1ccc(Cl)cc1 [Indomethacin]	↓ ≧1.25 μM				FRET-signal ↓ (concentration from which aggregation is reduced) ([1]; 48 h, 2% DMSO): ↓ ≧1.25 μM; Viability ↓ (concentration) (CHO-AA8/Q68-Q68 cells): ↓ 10 μM
CC(Cc1ccc(O)c(O)c1)C(C)Cc1ccc(O)c(O)c1 (stereo not shown) [NDGA]	↓ 500 nM	no effect		no effect	
Cc1cc(O)c(C)c2sc(N)nc12 [PGL-135]		decrease	no effect	not affected; also recorded: without affecting the cell viability; also recorded: no effect	inhibition of aggregate formation (in words) [2]: Only congo red reliably inhibited the formation of aggregates; mutant huntingtin aggregates in filter retardation assay [3]: significant decrease
Nc1nc2ccc(OC(F)(F)F)cc2s1 [Riluzole]			no effect	no effect	
C=C1[C@@H]2CC[C@@]3(C)[C@H](c4ccoc4)OC(=O)C[C@]13O[C@H]1CC(=O)C(C)(C)[C@H](CC(=O)OC)[C@]12C [S2, angolensic acid methylester]					EC50 [4]: 3000 nM
O=C(CCCCCN1C(=O)c2cccc3cccc(c23)C1=O)NO [Scriptaid]	↓ ≧25 μM		decreased		FRET-signal ↑ (concentration from which aggregation is increased) ([1]; 48 h, 2% DMSO): ↑ ≧25 μM; Viability ↓ (concentration) (CHO-AA8/Q68-Q68 cells): ↓ ≧25 μM
OC[C@H]1O[C@H](O[C@H]2O[C@H](CO)[C@@H](O)[C@H](O)[C@H]2O)[C@H](O)[C@@H](O)[C@@H]1O [Trehalose]		no effect	no effect	no effect	FRET-signal (effect in words) ([1]; 48 h, 2% DMSO, listed as threhalose): no effects
C[C@@H](N)[C@H]1CC[C@H](C(=O)Nc2ccncc2)CC1 [Y-27632]		no effect	no effect	no effect	apparent inhibitory effects due to toxic effects (concentration) [1]: > 12.5 µM
O=C(O)c1cc(/N=N/c2ccc(-c3ccc(/N=N/c4ccc(O)c(C(=O)O)c4)cc3)cc2)ccc1O [chrysamine G]		no effect	no effect	no effect	FRET-signal (effect in words) ([1]; 48 h, 2% DMSO, listed as Chrysamine G): no effects
COC1=C(OC)C(=O)C(C/C=C(\C)CC/C=C(\C)CC/C=C(\C)CC/C=C(\C)CC/C=C(\C)CC/C=C(\C)CC/C=C(\C)CC/C=C(\C)CC/C=C(\C)CCC=C(C)C)=C(C)C1=O [coenzyme Q10]		no effect	no effect	no effect	
Nc1c(/N=N/c2ccc(-c3ccc(/N=N/c4cc(S(=O)(=O)O)c5ccccc5c4N)cc3)cc2)cc(S(=O)(=O)O)c2ccccc12 [congo red]	↓ ≧125 μM			no effect	enhancement of the aggregation process (concentration) ([2]; 16 h, 23° C.): less than 50 μM; inhibited the formation of aggregates (concentration) ([2]; 16 h, 23° C.): > 50 µM; FRET-signal ↓ (concentration from which aggregation is reduced) ([1]; 48 h, 2% DMSO): ↓ ≧30 μM; FRET-signal ↓ (concentration from which aggregation is reduced) ([1]; 48 h, 2% DMSO, listed as Congo red): > 30 µM
COC1=C2C[C@@H](C)C[C@H](OC)[C@H](O)[C@@H](C)/C=C(\C)[C@H](OC(N)=O)[C@@H](OC)/C=C\C=C(/C)C(=O)NC(=CC1=O)C2=O [geldanamycin]			no effect	no effect	
O=C([O-])c1ccccc1O.[Na+] [sodiumsalicylat]		no effect		no effect	FRET-signal (effect in words) ([1]; 48 h, 2% DMSO, listed as sodiumsalyicylate): no effects
half-Chrysamine G		no effect	no effect	no effect	FRET-signal ↓ (concentration from which aggregation is reduced) ([1]; 48 h, 2% DMSO): > 2.5 µM
